One assay has as its system ULK1. Kind of assay: ULK1 serine 555 phosphorylation, Western blot. In kind it is cell-based, human. The settings on record: 1 μM; HeLa cells. The source says: Activation of the serine/threonine protein kinase ULK1 (unc-51-like kinase 1) via phosphorylation at serine 555 indicates stimulation of the canonical autophagy pathway. […] It has to be mentioned that this activating ULK1 phosphorylation can be inhibited by mTOR as well as stimulated via AMPK kinase. Both are basal physiological sensors of nutritional conditions and key signal transducers of canonical autophagy stimulation. ULK1 is in fact the signal mediating the induction of the formation of the phagophore during the autophagy process and, therefore, a central promoter of autophagy. ULK1 itself functions in a complex with at least three protein partners: FI P200 (focal adhesion kinase family interacting protein of 200 kDa), ATG (autophagy-related protein) 13 (ATG13), and ATG101.
Cell culture and microscopy. HeLa and HEK293A cells were cultured in DMEM (Invitrogen, Carlsbad, CA, USA, 41965062) supplemented with active FBS (Life Technologies GmbH, Carlsbad, CA, USA, 10270106), 1×ABAM (Invitrogen, 15240-062) and 1 mM sodium pyruvate (Invitrogen, 1136-088). […] Proteins were detected by chemiluminescence using the Amersham Imager 600 (GE). Confocal fluorescence microscopical analyses of HEK293A cells stably expressing GFP-LC3B were performed with the laser scanning microscope LSM 710 (Zeiss, Oberkochen).
A general note: In western blotting, separated proteins are transferred to a membrane and probed.

Assay [1] concerns C. elegans. Kind of assay: GFP-LGG-1-II autophagic flux in worms, Western blot. In kind it is in vivo. As to conditions: 80 μM; BafiA1 or DMSO for 6 h. The text has this:
Autophagy modulation by ANAVEX2-73 in vitro and its impact on some key autophagy network factors prompted the inventors to further analyze the impact of Sig-1 R activation by ANAVEX2-73 on autophagy and proteostasis also in vivo, employing the C. elegans model. The nematode ortholog of the human Sig-1 R is W08F4.3 and is expressed in several tissues, including the muscular system. To monitor autophagic flux in vivo the inventors employed a GFP-LGG-1 reporter worm strain. LGG-1 is a nematode ortholog of the mammalian GABARAP, and the GFP-tagged protein can be used to evaluate autophagic activity by Western blotting as well as confocal fluorescence microscopy. Employing Western blotting, the levels of GFP-LGG-1-II plus BafiA1 and without BafiA1 were analyzed, analogously to the flux measurements in HeLa cells as shown in FIG. 37.
C. elegans strains, maintenance, methods. C. elegans were maintained according to standard procedures on nematode growth medium (NGM) plates seeded with HB101 E. coli. […]
For analysis of autophagic activity, synchronous nematodes expressing GFP::LGG-1 were cultivated at 20° C. […] Thereafter worms were lysed for Western blotting or analyzed by confocal fluorescence microscopy.
Western blot analyses were performed as described previously. […] Proteins were detected by chemiluminescence using the Fuji LAS-3000 dark box (Fujifilm, Dusseldorf).

Assay [2] deals with C. elegans. Kind of assay: GFP-LGG-1 puncta in worms, confocal fluorescence microscopy. In kind it is in vivo. As to conditions: plus/minus BafiA1; head regions of worms. The text has this:
To further substantiate this finding we used confocal fluorescence microscopy to directly visualize autophagosomal structures, as indicated by GFP-LGG-1-positive puncta. […] In fact, a significant increase was found; autophagic flux as observed in vivo is induced by ANAVEX2-73 by approx. 2.5-fold (FIG. 37B; The number of GFP-positive autophagosomal structures (indicated by arrowheads) were counted in three independent experiments and in each experiment in at least 8-11 respective head regions of worms), which is consistent with the Western blot analysis (FIG. 37A).
C. elegans strains, maintenance, methods. C. elegans were maintained according to standard procedures on nematode growth medium (NGM) plates seeded with HB101 E. coli. The following strains were employed in this study: GFP::LGG-1 (ex[PIggI::IggI::GFP]/pRF4; maintained at 20° C.; and the strain CL2006 (dvls2 [pCL12(unc-54/human A13 peptide 1-42)+pRF4]), maintained at 15° C.
For analysis of autophagic activity, synchronous nematodes expressing GFP::LGG-1 were cultivated at 20° C. At first day of adulthood, worms were transferred to 80 μM ANAVEX2-73 or control M9 liquid culture medium for 2 h and subsequently were treated with Bafilomycin AI or DMSO (control) for 4-6 h. Thereafter worms were lysed for Western blotting or analyzed by confocal fluorescence microscopy.

In assay [3] the test system is human A[342-expressing worms. Description: Abeta42-induced paralysis of worms. Format: in vivo, C. elegans. As to conditions: up to 12 days, quantified daily, vs M9 buffer. The text has this:
This encouraged the inventors to further look into the functional consequences of autophagy induction, focusing on the impact of the degradative pathway on proteostasis in vivo. Therefore, human A[342-expressing worms characterized by a time-dependent paralysis were employed, due to the accumulation of A[342 oligomers and high molecular weight aggregates in body wall muscle cells; it is stressed here that A[342-expressing worms are not considered as a model for AD, but rather as an experimental model for general proteostasis stress and proteotoxicity, where protein aggregation in muscle cells leads do a clear-cut phenotype (here, paralysis). A1342 protein aggregates were stained in situ with thioflavine. […] The accumulation of A[342 aggregates in the muscle cells is known to lead to an enhanced paralysis of the worms over time. […] C. elegans were treated with the compound (or M9 buffer as control) up to 12 days and paralysis was quantified daily. […]
For analysis of paralysis rate, synchronous CL2006 nematodes were cultivated at 15° C. on plates seeded with HB101 E. coli re-suspended in M9 (control) or 100 μM and 50 μM ANAVEX2-73. […] Worms were mounted on 2% agar pads on a glass slide and confocal fluorescence microscopical analyses were performed with the LSM 710 (Zeiss, Oberkochen) laser scanning microscope.

The next assay concerns the target Sig-1 R (Homo sapiens, UniProt Q99720). The settings on record: cited from earlier work.

Sig-1 R, sequence (Q99720 whole entry, species assumed): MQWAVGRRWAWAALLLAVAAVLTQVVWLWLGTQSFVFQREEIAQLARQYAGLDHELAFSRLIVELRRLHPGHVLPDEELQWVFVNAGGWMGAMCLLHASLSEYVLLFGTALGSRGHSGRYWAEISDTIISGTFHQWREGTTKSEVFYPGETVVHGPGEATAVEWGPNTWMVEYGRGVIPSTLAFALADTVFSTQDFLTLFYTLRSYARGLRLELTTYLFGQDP

As for `CN(C)CC1CCOC1(c1ccccc1)c1ccccc1.Cl` (stereo not drawn) [ANAVEX2-73, tetrahydro-N,N-dimethyl-2,2-diphenyl-3-furanmethanamine hydrochloride], the “ULK1 serine 555 phosphorylation” value in the assay with ULK1 is “up to 2 fold”. Besides, in the assay with C. elegans [1], the “enhancement of autophagic flux (GFP-LGG-1-II, Western blot)” value is on record as about 2 fold. Further, in the assay on C. elegans [2], the “induction of autophagic flux (GFP-LGG-1 puncta)” value is given as “approx. 2.5 fold”. Also, the paralysis entry in assay [3] (50 NM) and in assay [3] (100 NM) was “clear reduction in paralysis” in each case. Further, on Sig-1 R, the “affinity for Sig-1 R” value is recorded as “low micromolar range”.
